Reference: patent publication US8470812B2, “Substituted benzo-pyrimido-tetrazolo-diazepine compounds” (ArQule, Inc., priority 2009, dated 2013)
Structures can show the parent of a compound that is named as a salt.

How the values were obtained:
[1] = target: CaMK2α (Homo sapiens, UniProt Q9UQM7); assay: CaMKII kinase activity, mobility shift assay (MSA); assay type: biochemical; details: 10 μM compound; ATP 50, GS peptide 1 uM; read-out: CaMK2α inh. @ 10 μM (%)
Method: (§1) CAMKII and CDK7 activity was assayed using a mobility shift assay (MSA). Test inhibitors and controls (staurosporine) were prepared at 4× the desired final concentration. Test compound (5.0 μL), 4× substrate/ATP/metal solution (5.0 μL), and 2× kinase (10 μL) were added to each well of a reaction plate and incubated for 1 hr at room temperature. The assay components were diluted in assay buffer (20 mM HEPES pH 7.5, 0.01% Triton X-100, 2 mM DTT). To terminate the reaction, 60 μL of termination buffer (QuickScout Screening Assist MSA, Carna Biosciences) was added to each well. The reaction mixture was applied to the LabChip3000 system (Caliper Life Sciences) and the product and substrate peptide peaks were separated and quantified.

[2] = target: CaMK2β (Homo sapiens, UniProt Q13554); assay: CaMKII kinase activity, mobility shift assay (MSA); assay type: biochemical; details: 10 μM compound; ATP 25, GS peptide 1 uM; read-out: CaMK2β inh. @ 10 μM (%)
Method: as §1

[3] = target: CaMK2γ (Homo sapiens, UniProt Q13555); assay: CaMKII kinase activity, mobility shift assay (MSA); assay type: biochemical; details: 10 μM compound; ATP 25, GS peptide 1 uM; read-out: CaMK2γ inh. @ 10 μM (%)
Method: as §1

[4] = target: CaMK2δ (Homo sapiens, UniProt Q13557); assay: CaMKII kinase activity, mobility shift assay (MSA); assay type: biochemical; details: 10 μM compound; ATP 5, GS peptide 1 uM; read-out: CaMK2δ inh. @ 10 μM (%)
Method: as §1

[5] = tested on: DLD-1 cancer cells; assay: MTS assay, cell growth inhibition; assay type: cell-based; details: DLD-1 cells, 72 h incubation; test concentration not given
Method: (§2) Cells were maintained at 37° C., 5% CO2 in DMEM media supplemented with 1% fetal bovine serum, penicillin/streptomycin and fungizone (Invitrogen). Cells were seeded into 96-well tissue culture plates at 3000 per well and cultured at 37° C. for 18 hours. Test compounds were dissolved and diluted to 300× in DMSO then diluted 1:40 in DMEM. Cells were incubated with test compounds for 72 hours followed by incubation with tetrazolium compound (3-(4,5-dimethylthiazol-2-yl)-5-(3-carboxymethoxyphenyl)-2-(4-sulfophenyl)-2H-tetrazolium, inner salt; MTS) and the electron coupling reagent, phenazine methosulfate (PMS) for 4 hours. […] The ability of compounds to inhibit cell growth in this assay is correlated with the reduction of dehydrogenase enzyme activity found in metabolically active cells. The measurement of the absorbance of the formazan was assessed using a Victor (Perkin Elmer) microplate reader at 492 nm. The calculated IC50 value is the concentration of the test compound that causes a 50% decrease in the absorbance. Selected compounds have been tested in DLD-1 and MDA-MB-231 cancer cells.

[6] = tested on: MDA-MB-231 cancer cells; assay: MTS assay, cell growth inhibition; assay type: cell-based; details: MDA-MB-231 cells, 72 h incubation; test concentration not given
Method: as §2

[7] = target: CDK7 (Homo sapiens, UniProt P50613); assay: CDK7 kinase activity, mobility shift assay (MSA); assay type: biochemical; details: 10 μM compound; ATP 50, CTD3 peptide 1 uM; read-out: CDK7 inh. @ 10 μM (%)
Method: as §1

Chain of CDK7 (P50613 whole entry, species assumed): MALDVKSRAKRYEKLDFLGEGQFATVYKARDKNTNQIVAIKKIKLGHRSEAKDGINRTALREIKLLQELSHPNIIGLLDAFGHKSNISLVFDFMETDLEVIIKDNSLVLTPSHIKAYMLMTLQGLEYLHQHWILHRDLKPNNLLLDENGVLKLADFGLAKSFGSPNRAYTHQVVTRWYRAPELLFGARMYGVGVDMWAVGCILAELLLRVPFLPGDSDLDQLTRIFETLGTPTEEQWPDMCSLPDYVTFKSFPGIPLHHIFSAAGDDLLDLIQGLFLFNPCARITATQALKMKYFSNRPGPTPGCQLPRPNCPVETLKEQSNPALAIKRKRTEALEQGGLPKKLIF
Chain of CDK7 (P51946 whole entry partner, species assumed): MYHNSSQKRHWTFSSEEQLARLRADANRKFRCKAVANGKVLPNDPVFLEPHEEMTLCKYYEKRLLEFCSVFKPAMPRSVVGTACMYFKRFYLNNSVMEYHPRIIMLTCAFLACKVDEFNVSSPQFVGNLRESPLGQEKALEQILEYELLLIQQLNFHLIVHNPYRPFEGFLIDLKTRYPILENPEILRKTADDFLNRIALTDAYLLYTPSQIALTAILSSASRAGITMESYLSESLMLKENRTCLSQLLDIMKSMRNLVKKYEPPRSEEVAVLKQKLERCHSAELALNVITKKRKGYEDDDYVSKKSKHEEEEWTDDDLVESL
Chain of CDK7 (P51948 whole entry partner, species assumed): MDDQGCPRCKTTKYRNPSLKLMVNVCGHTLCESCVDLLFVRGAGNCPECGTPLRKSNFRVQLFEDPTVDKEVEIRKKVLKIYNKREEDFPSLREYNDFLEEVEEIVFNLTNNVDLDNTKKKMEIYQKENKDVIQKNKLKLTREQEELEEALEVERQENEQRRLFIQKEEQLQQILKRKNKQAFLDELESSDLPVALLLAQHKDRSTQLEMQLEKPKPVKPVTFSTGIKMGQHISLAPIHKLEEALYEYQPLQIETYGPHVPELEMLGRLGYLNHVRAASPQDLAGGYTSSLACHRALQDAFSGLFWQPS

SMILES: CN1CCN(c2ncc3c(n2)N(Cc2ccc(F)c(F)c2)c2ccccc2-n2nnnc2-3)CC1 (as salt: HCl) [Compound 14, 9-(3,4-difluorobenzyl)-11-(4-methylpiperazin-1-yl)-9H-pyrimido[5,4-c]tetrazolo[1,5-a][1,5]benzodiazepine]
- melting point: 180 to 191 °C

SMILES: CN1CCN(c2ncc3c(n2)N(Cc2ccc(F)c(F)c2)c2ccccc2-n2nnnc2-3)CC1 [Compound 14, 9-(3,4-difluorobenzyl)-11-(4-methylpiperazin-1-yl)-9H-pyrimido[5,4-c]tetrazolo[1,5-a][1,5]benzodiazepine]
- inhibition at 10 µM [1]: 96%
- inhibition at 10 µM [2]: 88%
- inhibition at 10 µM [3]: 80%
- inhibition at 10 µM [4]: 96%
- DLD-1, MTS, 72 h (% Inhibition) [5]: 49%
- MDA-MB-231, MTS, 72 h (% Inhibition) [6]: 58%

SMILES: Fc1ccc(CN2c3ccccc3-n3nnnc3-c3cnc(NCc4cccnc4)nc32)cc1F [Compound 16, 9-(3,4-difluorobenzyl)-N-(pyridin-3-ylmethyl)-9H-pyrimido[5,4-c]tetrazolo[1,5-a][1,5]benzodiazepin-11-amine]
- inhibition at 10 µM [1]: 67%
- inhibition at 10 µM [2]: 41%
- inhibition at 10 µM [3]: 11%
- inhibition at 10 µM [4]: 65%
- DLD-1, MTS, 72 h (% Inhibition) [5]: 38%
- MDA-MB-231, MTS, 72 h (% Inhibition) [6]: 30%

SMILES: Fc1ccc(CN2c3ccccc3-n3nnnc3-c3cnc(NCCN4CCOCC4)nc32)cc1F [Compound 18, 9-(3,4-difluorobenzyl)-N-(2-morpholin-4-ylethyl)-9H-pyrimido[5,4-c]tetrazolo[1,5-a][1,5]benzodiazepin-11-amine]
- inhibition at 10 µM [1]: 42%
- inhibition at 10 µM [2]: 23%
- inhibition at 10 µM [3]: 12%
- inhibition at 10 µM [4]: 32%
- inhibition at 10 µM [7]: 84%

SMILES: c1ccc2c(c1)Nc1nc(NC3CCCC3)ncc1-c1nnnn1-2 [Compound 45, N-cyclopentyl-9H-pyrimido[5,4-c]tetrazolo[1,5-a][1,5]benzodiazepin-11-amine]
- DLD-1, MTS, 72 h (% Inhibition) [5]: 95%
- MDA-MB-231, MTS, 72 h (% Inhibition) [6]: 76%

SMILES: Clc1ccccc1CNc1ncc2c(n1)Nc1ccccc1-n1nnnc1-2 [Compound 48, N-(2-chlorobenzyl)-9H-pyrimido[5,4-c]tetrazolo[1,5-a][1,5]benzodiazepin-11-amine]
- DLD-1, MTS, 72 h (% Inhibition) [5]: 97%
- MDA-MB-231, MTS, 72 h (% Inhibition) [6]: 51%

SMILES: CC(Nc1ncc2c(n1)Nc1ccccc1-n1nnnc1-2)c1ccccc1 (stereo not shown) [Compound 51, N-(1-phenylethyl)-9H-pyrimido[5,4-c]tetrazolo[1,5-a][1,5]benzodiazepin-11-amine]
- DLD-1, MTS, 72 h (% Inhibition) [5]: 96%
- MDA-MB-231, MTS, 72 h (% Inhibition) [6]: 98%

SMILES: CC(Nc1ncc2c(n1)Nc1ccccc1-n1nnnc1-2)c1ccc(Cl)cc1 (stereo not shown) [Compound 52, N-[1-(4-chlorophenyl)ethyl]-9H-pyrimido[5,4-c]tetrazolo[1,5-a][1,5]benzodiazepin-11-amine]
- DLD-1, MTS, 72 h (% Inhibition) [5]: 97%
- MDA-MB-231, MTS, 72 h (% Inhibition) [6]: 98%

SMILES: COc1ccc(CNc2ncc3c(n2)Nc2ccccc2-n2nnnc2-3)cc1OC [Compound 57, N-(3,4-dimethoxybenzyl)-9H-pyrimido[5,4-c]tetrazolo[1,5-a][1,5]benzodiazepin-11-amine]
- DLD-1, MTS, 72 h (% Inhibition) [5]: 97%
- MDA-MB-231, MTS, 72 h (% Inhibition) [6]: 39%

SMILES: Clc1ccc(CNc2ncc3c(n2)Nc2ccccc2-n2nnnc2-3)cc1 [Compound 58, N-(4-chlorobenzyl)-9H-pyrimido[5,4-c]tetrazolo[1,5-a][1,5]benzodiazepin-11-amine]
- DLD-1, MTS, 72 h (% Inhibition) [5]: 97%
- MDA-MB-231, MTS, 72 h (% Inhibition) [6]: 98%

SMILES: Fc1ccc(F)c(CNc2ncc3c(n2)Nc2ccccc2-n2nnnc2-3)c1 [Compound 59, N-(2,5-difluorobenzyl)-9H-pyrimido[5,4-c]tetrazolo[1,5-a][1,5]benzodiazepin-11-amine]
- DLD-1, MTS, 72 h (% Inhibition) [5]: 97%
- MDA-MB-231, MTS, 72 h (% Inhibition) [6]: 71%

SMILES: CC(C)CC(C)Nc1ncc2c(n1)Nc1ccccc1-n1nnnc1-2 (stereo not shown) [Compound 63, N-(1,3-dimethylbutyl)-9H-pyrimido[5,4-c]tetrazolo[1,5-a][1,5]benzodiazepin-11-amine]
- DLD-1, MTS, 72 h (% Inhibition) [5]: 90%
- MDA-MB-231, MTS, 72 h (% Inhibition) [6]: 32%

SMILES: CC1CCCN1c1ncc2c(n1)Nc1ccccc1-n1nnnc1-2 (stereo not shown) [Compound 68, 11-(2-methylpyrrolidin-1-yl)-9H-pyrimido[5,4-c]tetrazolo[1,5-a][1,5]benzodiazepine]
- DLD-1, MTS, 72 h (% Inhibition) [5]: 97%
- MDA-MB-231, MTS, 72 h (% Inhibition) [6]: 75%

SMILES: COc1cc(CNc2ncc3c(n2)Nc2ccccc2-n2nnnc2-3)cc(OC)c1OC [Compound 72, N-(3,4,5-trimethoxybenzyl)-9H-pyrimido[5,4-c]tetrazolo[1,5-a][1,5]benzodiazepin-11-amine]
- DLD-1, MTS, 72 h (% Inhibition) [5]: 97%
- MDA-MB-231, MTS, 72 h (% Inhibition) [6]: 78%

SMILES: c1ccc2c(c1)CCCC2Nc1ncc2c(n1)Nc1ccccc1-n1nnnc1-2 (stereo not shown) [Compound 77, N-(1,2,3,4-tetrahydronaphthalen-1-yl)-9H-pyrimido[5,4-c]tetrazolo[1,5-a][1,5]benzodiazepin-11-amine]
- DLD-1, MTS, 72 h (% Inhibition) [5]: 97%
- MDA-MB-231, MTS, 72 h (% Inhibition) [6]: 86%

SMILES: c1ccc2c(c1)Nc1nc(NC3CCC3)ncc1-c1nnnn1-2 [Compound 85, N-cyclobutyl-9H-pyrimido[5,4-c]tetrazolo[1,5-a][1,5]benzodiazepin-11-amine]
- DLD-1, MTS, 72 h (% Inhibition) [5]: 97%
- MDA-MB-231, MTS, 72 h (% Inhibition) [6]: 99%

SMILES: Fc1ccccc1CNc1ncc2c(n1)Nc1ccccc1-n1nnnc1-2 [Compound 88, N-(2-fluorobenzyl)-9H-pyrimido[5,4-c]tetrazolo[1,5-a][1,5]benzodiazepin-11-amine]
- DLD-1, MTS, 72 h (% Inhibition) [5]: 96%
- MDA-MB-231, MTS, 72 h (% Inhibition) [6]: 41%

SMILES: CCC(C)CNc1ncc2c(n1)Nc1ccccc1-n1nnnc1-2 (stereo not shown) [Compound 95, N-(2-methylbutyl)-9H-pyrimido[5,4-c]tetrazolo[1,5-a][1,5]benzodiazepin-11-amine]
- DLD-1, MTS, 72 h (% Inhibition) [5]: 97%
- MDA-MB-231, MTS, 72 h (% Inhibition) [6]: 99%

SMILES: c1ccc(CCNc2ncc3c(n2)Nc2ccccc2-n2nnnc2-3)nc1 [Compound 98, N-(2-pyridin-2-ylethyl)-9H-pyrimido[5,4-c]tetrazolo[1,5-a][1,5]benzodiazepin-11-amine]
- DLD-1, MTS, 72 h (% Inhibition) [5]: 76%
- MDA-MB-231, MTS, 72 h (% Inhibition) [6]: 41%

SMILES: COc1ccc(OC)c(CNc2ncc3c(n2)Nc2ccccc2-n2nnnc2-3)c1 [Compound 103, N-(2,5-dimethoxybenzyl)-9H-pyrimido[5,4-c]tetrazolo[1,5-a][1,5]benzodiazepin-11-amine]
- DLD-1, MTS, 72 h (% Inhibition) [5]: 97%
- MDA-MB-231, MTS, 72 h (% Inhibition) [6]: 97%

SMILES: CCCN(C)c1ncc2c(n1)Nc1ccccc1-n1nnnc1-2 [Compound 104, N-methyl-N-propyl-9H-pyrimido[5,4-c]tetrazolo[1,5-a][1,5]benzodiazepin-11-amine]
- DLD-1, MTS, 72 h (% Inhibition) [5]: 97%
- MDA-MB-231, MTS, 72 h (% Inhibition) [6]: 99%
